pIC50: −log10 of the molar value.
Tests used:
human plasma kallikrein = target: T1, human plasma kallikrein (Homo sapiens, UniProt P03952); assay: Determination of the plasma kallikrein activity (fluorogenic peptide substrate, AMC cleavage); assay type: biochemical; conditions: plasma kallikrein from Kordia 0.6 nM; substrate H-Pro-Phe-Arg-AMC 10 μM; 30 min at 22° C.; in some cases averages from multiple determinations
T1 construct: purchased Kordia
Procedure, shortened: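 Kallikrein cleavage of H-Pro-Phe-Arg-AMC was followed by AMC fluorescence (ex 360, em 460) after 15 min enzyme–compound preincubation. IC50 was derived versus DMSO controls over final concentrations of 50 μM to 0.00013 μM.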

human factor XIa = target: T2, human factor XIa (Homo sapiens, UniProt P03951); assay: Measurement of FXIa inhibition (fluorogenic peptide substrate, AMC cleavage); assay type: biochemical; conditions: factor XIa from Kordia 0.45 nM; substrate Boc-Glu(OBzl)-Ala-Arg-AMC 10 μM; 30 min at 22° C.; in some cases averages from multiple determinations
T2 construct: purchased Kordia
T2 sequence (P03951 388-625 limits assumed): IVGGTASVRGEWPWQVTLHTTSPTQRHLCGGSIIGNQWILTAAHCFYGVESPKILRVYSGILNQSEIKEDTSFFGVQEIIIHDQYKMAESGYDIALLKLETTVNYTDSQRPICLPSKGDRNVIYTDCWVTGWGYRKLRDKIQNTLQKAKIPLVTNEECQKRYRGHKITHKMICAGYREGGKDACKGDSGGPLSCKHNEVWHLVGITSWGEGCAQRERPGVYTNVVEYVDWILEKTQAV
T2 sequence (P03951 19-387 partner limits assumed): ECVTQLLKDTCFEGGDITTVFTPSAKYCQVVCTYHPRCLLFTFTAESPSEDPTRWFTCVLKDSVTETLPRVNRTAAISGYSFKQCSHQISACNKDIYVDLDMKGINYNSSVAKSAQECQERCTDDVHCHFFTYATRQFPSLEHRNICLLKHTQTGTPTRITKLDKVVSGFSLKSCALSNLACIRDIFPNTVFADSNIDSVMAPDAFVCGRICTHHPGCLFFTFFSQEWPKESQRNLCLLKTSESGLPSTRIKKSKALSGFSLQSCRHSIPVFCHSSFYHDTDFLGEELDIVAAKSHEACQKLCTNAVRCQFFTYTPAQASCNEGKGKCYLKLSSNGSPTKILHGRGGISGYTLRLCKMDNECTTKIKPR

T1 sequence (P03952 391-638 limits assumed): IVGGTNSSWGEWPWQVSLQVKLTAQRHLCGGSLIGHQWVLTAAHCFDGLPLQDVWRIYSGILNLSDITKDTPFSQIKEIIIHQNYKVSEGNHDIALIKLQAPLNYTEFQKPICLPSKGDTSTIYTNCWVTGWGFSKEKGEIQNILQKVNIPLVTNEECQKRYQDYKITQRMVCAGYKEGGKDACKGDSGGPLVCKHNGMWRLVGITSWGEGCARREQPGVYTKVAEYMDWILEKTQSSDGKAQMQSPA
T1 sequence (P03952 20-390 partner limits assumed): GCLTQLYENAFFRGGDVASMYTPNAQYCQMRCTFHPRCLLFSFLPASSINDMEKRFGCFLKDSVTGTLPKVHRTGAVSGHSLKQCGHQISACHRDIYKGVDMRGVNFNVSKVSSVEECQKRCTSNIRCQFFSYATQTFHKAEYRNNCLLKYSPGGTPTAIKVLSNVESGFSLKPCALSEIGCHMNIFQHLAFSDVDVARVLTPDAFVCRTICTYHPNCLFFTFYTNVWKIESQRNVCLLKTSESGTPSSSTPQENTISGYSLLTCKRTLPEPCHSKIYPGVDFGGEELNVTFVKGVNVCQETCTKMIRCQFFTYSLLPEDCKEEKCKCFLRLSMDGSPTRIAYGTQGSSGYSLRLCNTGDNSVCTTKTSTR

SMILES	pIC50 (human plasma kallikrein)	pIC50 (human factor XIa)
COc1cn(C(CCOC(C)(C)C)C(=O)Nc2ccc(C(=O)O)cc2)c(=O)cc1-c1cc(Cl)ccc1OCC(F)F (racemic) [Example 25, 4-[(4-tert-Butoxy-2-{4-[5-chloro-2-(2,2-difluoroethoxy)phenyl]-5-methoxy-2-oxopyridin-1(2H)-yl}butanoyl)amino]benzoic acid]	6.92	8.62
CNC(=O)c1ccc(NC(=O)C(CCOC2(C)CCC2)n2cc(OC)c(-c3cc(Cl)ccc3OCC(F)(F)F)cc2=O)cn1 (racemic) [Example 57, 5-[[2-[4-[5-Chloro-2-(2,2,2-trifluoroethoxy)phenyl]-5-methoxy-2-oxo-1-pyridyl]-4-(1-methylcyclobutoxy)butanoyl]amino]-N-methylpyridine-2-carboxamide]	7.27	7.85
COc1cn(C(C[C@H](C)OC)C(=O)Nc2ccc(C(=O)O)cc2)c(=O)cc1-c1cc(Cl)ccc1OCC(F)(F)F (mixture of isomers) [Example 35, 4-{[(4S)-2-{4-[5-Chloro-2-(2,2,2-trifluoroethoxy)phenyl]-5-methoxy-2-oxopyridin-1(2H)-yl}-4-methoxypentanoyl]amino}benzoic acid]	6.89	8.62
CNC(=O)c1ccc(NC(=O)C(CCOC)n2cc(OC)c(-c3cc(Cl)ccc3OCC(F)(F)F)cc2=O)cc1F (racemic) [Example 6, 4-[(2-{4-[5-Chloro-2-(2,2,2-trifluoroethoxy)phenyl]-5-methoxy-2-oxopyridin-1(2H)-yl}-4-methoxybutanoyl)amino]-2-fluoro-N-methylbenzamide]	6.89	7.72
COc1cn(C(CCOC(F)(F)F)C(=O)Nc2ccc(C(N)=O)c(F)c2)c(=O)cc1-c1cc(Cl)ccc1OCC(F)(F)F (racemic) [Example 42, 4-{[2-{4-[5-Chloro-2-(2,2,2-trifluoroethoxy)phenyl]-5-methoxy-2-oxopyridin-1(2H)-yl}-4-(trifluoromethoxy)butanoyl]amino}-2-fluorobenzamide]	6.72	7.54

Further compounds by rising pIC50 (human plasma kallikrein), results first:

pIC50 (human plasma kallikrein)	pIC50 (human factor XIa)	SMILES
7.13	8.33	COc1cn(C(CC2COCCO2)C(=O)Nc2ccc(C(N)=O)nc2)c(=O)cc1-c1cc(Cl)ccc1OCC(F)F (stereo not drawn) [Example 30, 5-{[2-{4-[5-Chloro-2-(2,2-difluoroethoxy)phenyl]-5-methoxy-2-oxopyridin-1(2H)-yl}-3-(1,4-dioxan-2-yl)propanoyl]amino}pyridine-2-carboxamide]
7.14	8.10	COc1cn(C(C[C@H](C)OC)C(=O)Nc2ccc3nn(C)cc3c2)c(=O)cc1-c1cc(Cl)ccc1OCC(F)(F)F (mixture of isomers) [Example 37, (4S)-2-{4-[5-Chloro-2-(2,2,2-trifluoroethoxy)phenyl]-5-methoxy-2-oxopyridin-1(2H)-yl}-4-methoxy-N-(2-methyl-2H-indazol-5-yl)pentanamide]
7.35	8.03	COc1cn(C(Cc2ccn(C)n2)C(=O)Nc2ccc3nn(C)cc3c2)c(=O)cc1-c1cc(Cl)ccc1OCC(F)(F)F (racemic) [Example 14, 2-{4-[5-Chloro-2-(2,2,2-trifluoroethoxy)phenyl]-5-methoxy-2-oxopyridin-1(2H)-yl}-N-(2-methyl-2H-indazol-5-yl)-3-(1-methyl-1H-pyrazol-3-yl)propanamide]
7.46	8.19	CNC(=O)c1ccc(NC(=O)C(Cc2ccn(C)n2)n2cc(OC)c(-c3cc(Cl)ccc3OCC(F)(F)F)cc2=O)cn1 (racemic) [Example 15, 5-{[2-{4-[5-Chloro-2-(2,2,2-trifluoroethoxy)phenyl]-5-methoxy-2-oxopyridin-1(2H)-yl}-3-(1-methyl-1H-pyrazol-3-yl)propanoyl]amino}-N-methylpyridine-2-carboxamide]
